Test results reported in US9212209B2, “Screening methods for spinal muscular atrophy” (Indiana University Research and Technology Corporation, priority 2012, dated 2015).
≈ marks a conversion by molar mass, not a printed value. Where “and” joins values, the source holds several entries; their conditions need not be identical. Equal values may be shown once. Read-outs that look alike come from different tables or passages of the source.

Key:
[1] = Liver microsome stability; conditions: for Stabilityin liver microsomes: Table 8; for Stability: Table 9; for half-life: mouse, liver microsomes
SMN2-luciferase reporter = SMN2-luciferase reporter assay (clonal HEK-293 SMN2-luc cells); type: cell-based, human; conditions: for EC50 / Emax: Homo sapiens; for Emax: read-out: Max % Activity; for Max. fold increase: cell-based reporter response to known SMN2 modulating compounds; for Maximum % activation: Table 7
Protocol: The reporter cell lines were plated at 50,000 cells per well in 96-well plates and incubated overnight. Compounds were added to each well and incubated at 37° C. overnight. The final DMSO concentration was 0.1%. Luciferase activity was assayed using either STEADYGLO (PROMEGA E2510) or DUALGLO (PROMEGA E2920) luciferase using the WALLAC ENVISION multilabel reader. For detailed assay conditions see Table 2A. All data points were transformed from CPS to percent increase over basal expression in the treated control wells (DMSO or H2O as appropriate).
Plates were sealed with porous paper tape and incubated for 24 hours. […] For comparison, data points were transformed from CPS to percent activation over basal expression in the DMSO treated control wells.
For comparison, all data points are expressed as percent increase over basal luciferase expression in the control cells.

[2] = Solubility in PBS / aqueous solution; type: physicochemical
[3] = tested on: SMN-luciferase transcripts; experiment: qRT-PCR of SMN-luciferase transcripts in SMN2-luc cells; type: cell-based, human; conditions: 24 hours, relative to DMSO, normalized to GAPDH, aclarubicin at 300 nM, words
Protocol: Compounds were tested at three concentrations that display maximal activity in the luciferase assay. Cells were treated as described above for the luciferase assay. Cells were harvested by trypsinization, neutralized with trypsin inhibitor, and washed. RNA was isolated from the cells using TRIZOL Reagent (Invitrogen 15596-026). cDNA was generated using the IMPROM-II Reverse Transcription System (Promega A3801).
The forward primer pair recognizes the exon 5-6 junction, which includes a restriction site that was engineered into the reporter and will exclude amplification of endogenous SMN mRNA. The reverse primers recognize either exon 7 or luciferase for detection of full-length or total SMN-luciferase transcripts respectively. For a reference control, cDNA from the housekeeping gene glyceraldehyde-3-phosphate dehydrogenase (GAPDH) was amplified. The primers used include SMN exon5-forward ([…]) (SEQ ID NO: 3), luciferase-reverse ([…]) (SEQ ID NO: 4), exon7-reverse ([…]) (SEQ ID NO: 5), GAPDH-reverse (G3A) ([…]) (SEQ ID NO: 6) and GAPDH-forward (G3S) ([…]) (SEQ ID NO: 7). qPCR was performed as described in the protocol for iQ SYBRGREEN SUPERMIX (Biorad 170-8882) using an EPPENDORF Mastercycler ep realplex^4 Thermo Cycler. Reactions were incubated for a 10 minute, 94° C. hot start followed by 45 cycles of the following: 94° C. for 45 second, 60° C. for 15 seconds, 72° C. for 45 seconds. Melting curves for each reaction were obtained. Each sample was assayed in triplicate and every plate contained a 5-point cDNA dilution course to calculate amplification efficiency for each primer pair. The Pfaffl method was used to determine the change in transcript levels relative to the DMSO and normalized to GAPDH (Pfaffl, M. W., “A new mathematical model for relative quantification in real-time RT-PCR,” Nucleic Acids Res 2001, 29(9), 3e45).
Based on the new reporter design, it was predicted that this screen could detect increased SMN-luciferase protein levels caused by compounds that stimulate SMN2 transcription, exon 7 inclusion, or by increasing the half-life of the SMN mRNA or protein. Quantitative reverse transcriptase PCR (qRT-PCR) was used to analyze SMN-luciferase mRNAs. All assays used RNA from control and compound-treated SMN2-luc cells and primers pairs were chosen to amplify only the SMN-luciferase derived transcripts (FIG. 4A). A pair of primers were used that specifically detects both full-length (exon 7 included) and Δ7 (exon 7 excluded) SMN-luciferase transcripts (primers 1 and 3). To measure changes in exon 7 splicing efficiency, a primer pair was used that detects only the full-length (exon 7 included) SMN-luciferase transcript (primers 1 and 2).
For each sample, the percent increase in the amount of total SMN-luciferase transcripts (gray bar) and exon 7 included full-length SMN-luciferase transcripts (white bar) was plotted (FIG. 4). Compounds that increase transcription should show increased total SMN-luciferase transcripts (gray bar) with a proportional increase for exon 7 included transcripts (white bar), assuming that proper splicing of exon 7 is not rate limiting. Compounds that stimulate exon 7 inclusion should increase the amount of exon 7 included full-length transcript (white bar) detected with little to no change in the expression of total SMN-luciferase transcripts (gray bar). In these experiments, cells were treated with compound, harvested, and each cell pellet was divided for isolation of RNA and to assay luciferase activity. Each qRT-PCR sample was normalized to the housekeeping gene glyceraldehyde-3-phosphate dehydrogenase (GAPDH). The Pfaffl method was used to calculate the change in the amount of total SMN mRNA and determine whether compound treatments increased SMN transcripts.

SMA mice = experiment: SMA mice, intraperitoneal dosing: lifespan, weight, time to right; type: in vivo, mouse; conditions: for lifespan / weight of the treated animals: IP once daily post-natal day 1-10, compounds in 20% DMSO, words; for lifespan: 3-4 animals each; for Time to right: individual pup, raw data
Protocol: The animal studies included new derivatives of LDN-76070 and LDN-75654. Mice were injected intraperitoneally once daily from post-natal day 1-10. […] Compounds LDN-212014, LDN-212016, LDN-212351, and LDN-212391 were injected into a cohort of animals (3-4 each). […] In the Kaplan-Meier curve that DMSO control decreased survival by 50%—the compounds were in […] (FIG. 26A).
LDN-212014 and LDN-76070 were further tested in A7 SMA model mice. Mice were dosed using compounds dissolved in 100% DMSO injected at 20 mg/kg with each dose administered once daily by intraperitoneal injection. As shown in the black curves in the Kaplan-Meier plot, control animals lived 4-5 days longer than the DMSO vehicle treated animals, indicating toxicity. […] In fact, the compounds display a statistically significant increase in survival compared with the untreated animals. These compounds extend the lifespan of SMA mice despite the DMSO toxicity.
In ‘time to right’ experiments, animals are placed on their backs and the duration for animals to right themselves is recorded. Animals that are unable to right in less than 30 seconds are scored as a failure. DMSO treated animals were unable to right themselves, while a small percentage of untreated animals display the ability to right themselves for up to postnatal day (PND) 11. A larger percentage of treated animals can right themselves past PND 17, and in the case of one animal as late as PND 21.

[4] = HEK293, reporter assay, Table 6, read-out: Ec50
[5] = HEK293, reporter assay, Table 6
[6] = aqueous solution, Table 8, grades, read-out: Solubility in aqueous solution
[7] = T1/2 in liver microsomes, Table 7
[8] = HEK293, Table 7, read-out: EC50
[9] = PBS, aqueous buffer, read-out: Maximal solubility in PBS

| Compound | Stabilityin liver microsomes [1] | EC50 (SMN2-luciferase reporter; [4]) | Emax (SMN2-luciferase reporter; [5]) | Active (SMN2-luciferase reporter; reporter assay, Table 6) | solubility [2, 6] | Stability [1] | EC50 (SMN2-luciferase reporter; [8]) | Maximum % activation (SMN2-luciferase reporter) | lifespan (SMA mice) | weight of the treated animals (SMA mice) | Time to right (SMA mice; PND 6) | Time to right (SMA mice; PND 7) | Time to right (SMA mice; PND 8) | Time to right (SMA mice; PND 9) | Time to right (SMA mice; PND 10) | Time to right (SMA mice; PND 11) | Time to right (SMA mice; PND 12) | Time to right (SMA mice; PND 13) | Time to right (SMA mice; PND 14) | Time to right (SMA mice; PND 15) | also measured |
| --- | --- | --- | --- | --- | --- | --- | --- | --- | --- | --- | --- | --- | --- | --- | --- | --- | --- | --- | --- | --- | --- |
| O=C(Nc1ncc(C2(O)CCC2)s1)c1nc2ccccc2[nH]1 [LDN-214098] | 59 min | 150 nM | 200% | Yes | > 2000 µM |  |  |  |  |  |  |  |  |  |  |  |  |  |  |  |  |
| CC(C(=O)O)c1ccc(N2Cc3ccccc3C2=O)cc1 (stereo not shown) [Indoprofen, indoprofen, reference compound] |  |  |  |  |  |  |  |  |  |  |  |  |  |  |  |  |  |  |  |  | exon 7 included full-length SMN-luciferase transcripts [3]: No consistent change; total SMN-luciferase transcripts [3]: No consistent change; EC50 (SMN2-luciferase reporter; HEK293, cell-based reporter, known SMN2 modulating compounds, read-out: EC50): 460 nM; Max. fold increase (SMN2-luciferase reporter): 3 fold |
| COc1cc2c(c(OC)c1OC)C(c1cc(Cl)ccc1F)NC(=O)N2 (stereo not shown) [LDN-212391] | 13 to 20 min | 4400 nM |  | Yes | 500 to 2000 µM (≈ 183 to 734 µg/mL) | 13 to 20 min | 5000 nM | 238.3 ± 28.5% | extension of lifespan | increased | Fail (Fail = >30 sec) | Fail (Fail = >30 sec) | Fail (Fail = >30 sec) | Fail (Fail = >30 sec) (2×) and 18 seconds | Fail (Fail = >30 sec) (2×) and 20 seconds | Fail (Fail = >30 sec) | dead and Fail (Fail = >30 sec) (2×) | dead and Fail (Fail = >30 sec) (2×) | dead and Fail (Fail = >30 sec) (2×) | dead and Fail (Fail = >30 sec) (2×) | half-life [1, 7]: 13 min; Max % Activity (SMN2-luciferase reporter; reporter assay, Table 6): 267%; Time to right (SMA mice; PND 16): dead (2×) and Fail (Fail = >30 sec); Time to right (SMA mice; PND 17): dead (2×) and Fail (Fail = >30 sec); Time to right (SMA mice; PND 18): dead (2×) and Fail (Fail = >30 sec); Time to right (SMA mice; PND 19): dead (2×) and Fail (Fail = >30 sec); Time to right (SMA mice; PND 20): dead; solubility [2, 9]: 1000 µM (≈ 367 µg/mL) |
| COc1cc2c(c(OC)c1OC)C(c1cc(Cl)ccc1F)CC(=O)N2 (stereo not shown) [LDN-212351] | 45 min | 12000 nM | 150% | Yes | < 500 µM | 45 min | 9800 nM | 168.5 ± 10.6% | extension of lifespan | increased | dead and Fail (Fail = >30 sec) (2×) and 3 seconds | dead and Fail (Fail = >30 sec) (2×) and 5 seconds | dead and Fail (Fail = >30 sec) (3×) | dead and 13 seconds and Fail (Fail = >30 sec) (2×) | dead and Fail (Fail = >30 sec) (3×) | dead (3×) and Fail (Fail = >30 sec) | dead (3×) and Fail (Fail = >30 sec) | dead (3×) and Fail (Fail = >30 sec) | dead (3×) and Fail (Fail = >30 sec) | dead | half-life [1, 7]: 45 min; half-life ([1]; t1/2 in mouse liver microsomes, mouse liver microsomes): 45 min; Time to right (SMA mice; PND 16): dead; Time to right (SMA mice; PND 17): dead; Time to right (SMA mice; PND 18): dead; Time to right (SMA mice; PND 19): dead; Time to right (SMA mice; PND 20): dead; solubility [2, 9]: 500 µM (≈ 183 µg/mL) |
| CC(C)c1cc(C(=O)Nc2nc3ccccc3[nH]2)no1 [LDN-212016] | 3 min | 300 nM | 250% | Yes | < 500 µM | 3 min | 300 nM | 162.4 ± 62.4% | extension of lifespan | increased | Fail (Fail = >30 sec) | Fail (Fail = >30 sec) (3×) and 25 seconds | Fail (Fail = >30 sec) | Fail (Fail = >30 sec) | Fail (Fail = >30 sec) (3×) and 12 seconds | Fail (Fail = >30 sec) (3×) and 9 seconds | Fail (Fail = >30 sec) | dead and Fail (Fail = >30 sec) (2×) and 11 seconds | dead (2×) and Fail (Fail = >30 sec) (2×) | dead (3×) and Fail (Fail = >30 sec) | Time to right (SMA mice; PND 16): dead (3×) and Fail (Fail = >30 sec); Time to right (SMA mice; PND 17): dead (3×) and Fail (Fail = >30 sec); Time to right (SMA mice; PND 18): dead; Time to right (SMA mice; PND 19): dead; Time to right (SMA mice; PND 20): dead; solubility [2, 9]: 500 µM (≈ 135 µg/mL) |
| CC[C@@]1(O)C[C@H](O[C@H]2C[C@H](N(C)C)[C@H](O[C@H]3C[C@H](O)[C@H](O[C@H]4CCC(=O)[C@H](C)O4)[C@H](C)O3)[C@H](C)O2)c2c(cc3c(c2O)C(=O)c2c(O)cccc2C3=O)[C@H]1C(=O)OC [Aclarubicin, aclarubicin, reference compound] |  |  |  |  |  |  |  |  |  |  |  |  |  |  |  |  |  |  |  |  | exon 7 included full-length SMN-luciferase transcripts [3]: lesser increase; total SMN-luciferase transcripts [3]: potent increase; EC50 (SMN2-luciferase reporter; HEK293): 298 nM; Max. fold increase (SMN2-luciferase reporter): 10 fold |
